Test system: primary adult human dermal fibroblasts (HDFs)
Assay: High-throughput compound screen for selective elimination of senescent cells (cell viability, Hoechst 33342 / SYTOX Green high content imaging) in early proliferating (EP) and deeply senescent (DS) fibroblasts
Type: cell-based
Set-up: key: senolytic: EP cell viability above the 89% EP threshold and DS cell viability below the 87% DS threshold for at least one concentration of the three serial concentrations; prolifolytic: test compounds which decreased EP cell viability below the 89% EP threshold but did not decrease DS cell viability below 87%; cytotoxic: Test compounds which decreased both EP and DS cell viability below their respective thresholds; non-toxic: test compounds which maintained both EP and DS viability above their respective thresholds
Settings: three serial concentrations, 48 hours incubation, read-out five days post compound addition, thresholds 89% EP, 87% DS, for at least one concentration
Description: Actinomycin D, a drug widely reported to induce apoptosis in multiple cell types, was optimised for use as a positive 'senolytic control' for the high-throughput compound screen in EP (0.02µM) and DS (0.2µM) HDFs.
In order to perform the high-throughput screen of the test compounds a thorough validation process of the assay was undertaken prior to experimental screening. For both EP and DS HDFs, the following steps were optimised: optimisation of cell seeding densities in 384-well plate format; validation and optimisation of Actinomycin D positive and DMSO-vehicle negative controls; optimisation of high-throughput image acquisition and high content analysis of Hoechst 33342 (ThermoFisher, UK) in combination with SYTOX Green (ThermoFisher, UK) using the INCell 2200 microscope (GE, UK) for cell death phenotypic read-outs; optimisation of liquid handling system protocols; plate uniformity assessments; and a "dry run" of all components in the assay. […]
Following successful high-throughput compound screening of the test compounds in both EP and DS HDFs, a number of post-screen quality control checks were employed prior to hit detection. First, negative and positive control inter- and intra-plate cell number variability was assessed in order to identify potential systemic issues. […]

Question: Which “hit classification based on EP and DS cell viability” value does the source give for `O=C(O)Cn1ccc2ccccc21` [1-indoleacetic acid] here?
Answer: Its value is “senolytic”.

From EP4168130B1, “USE OF INDOLE COMPOUNDS FOR TREATING SIGNS OF SKIN AGING” (Unilever IP Holdings B.V., priority 2020, dated 2021)
